Experimental findings from patent US11021481B2, “Substituted isoindolin-1-ones and 2,3-dihydro-1h-pyrrolo[3,4-c]pyridin-1-ones as HPK1 antagonists” (Nimbus Saturn, Inc., priority 2019, dated 2021) are described below.

pIC50: −log10 of the molar value. Where a name gives a salt, the structure may show the parent alone. Bounds are passed on as bounds.

Chain of HPK1 (Q92918 whole entry): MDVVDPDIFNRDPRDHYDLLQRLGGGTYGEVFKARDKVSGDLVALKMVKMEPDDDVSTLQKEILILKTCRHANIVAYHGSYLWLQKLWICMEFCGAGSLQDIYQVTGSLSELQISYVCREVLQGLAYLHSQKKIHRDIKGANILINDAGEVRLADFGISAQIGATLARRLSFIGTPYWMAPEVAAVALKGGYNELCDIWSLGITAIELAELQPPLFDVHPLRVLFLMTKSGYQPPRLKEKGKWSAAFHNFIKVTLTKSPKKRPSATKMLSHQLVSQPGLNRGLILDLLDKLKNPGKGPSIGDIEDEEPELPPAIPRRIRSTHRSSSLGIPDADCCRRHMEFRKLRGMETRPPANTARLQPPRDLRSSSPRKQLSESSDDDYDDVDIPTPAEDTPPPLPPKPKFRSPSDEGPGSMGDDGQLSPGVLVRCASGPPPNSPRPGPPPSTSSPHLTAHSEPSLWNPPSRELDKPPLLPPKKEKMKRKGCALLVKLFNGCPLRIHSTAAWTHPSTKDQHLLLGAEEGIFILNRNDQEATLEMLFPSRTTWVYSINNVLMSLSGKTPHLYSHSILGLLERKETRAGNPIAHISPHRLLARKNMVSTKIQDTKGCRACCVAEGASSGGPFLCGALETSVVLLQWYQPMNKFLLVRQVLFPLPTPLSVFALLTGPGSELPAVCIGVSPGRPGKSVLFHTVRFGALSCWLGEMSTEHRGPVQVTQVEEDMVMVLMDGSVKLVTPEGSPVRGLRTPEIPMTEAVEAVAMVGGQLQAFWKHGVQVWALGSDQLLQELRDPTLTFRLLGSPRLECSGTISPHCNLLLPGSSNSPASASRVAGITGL

The assay deals with HPK1 (Homo sapiens (Human), UniProt Q92918). The assay can be described thus: HPK1 biochemical enzyme assay (microfluidic mobility shift assay). The note with it: 1.5 nM HPK1, ATP 1 mM final, 30 min preincubation, 60 min at RT, Caliper EZ Reader; read-out: HPK1 1000UMATP caliper IC50. The method, boiled down:
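Mobility shift readout of HPK1 activity after a 60 min RT reaction with 1 mM ATP, 1 μM substrate and 5 mM MgCl2. Enzyme/substrate mix was first exposed to compounds for 30 min, using ten-point curves topping at 3 μM final.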
A word on the pIC50: it is the IC50 on a negative log10 scale, so that one unit is a factor of ten. Turning to `COC[C@@H]1CN(c2ccc(Nc3ccc(-c4cnc5cc(F)ccn45)c4c3C(=O)NC4)nc2)CCO1` [I-442, (S)-4-(7-fluoroimidazo [1,2-a]pyridin-3-yl)-7-((5-(2-(methoxymeth-yl)morpholino)pyridin-2-yl)amino)isoin-dolin-1-one], the negative-log IC50 (pIC50) was over 7.00.

Regarding `Cn1ccc2c(-c3ncc(Nc4cccc(N5CC[C@H](N6CCCC6)C5)n4)c4c3CNC4=O)ccnc21` [I-443, (S)-7-((6-([1,3-bipynolidin]-1′-yl)pyridin-2-yl)amino)-4-(1-methyl-1H-pyrrolo[2,3-b]pyridin-4-yl)-2,3-dihydro-1H-pyrrolo[3,4-c]pyridin-1-one], the negative logarithm of the IC50 (pIC50) was over 7.00.

Regarding `Cc1ccn2c(-c3ccc(Nc4ccc(N5CCC(O)(CN6CCN(C)CC6)CC5)cn4)c4c3CNC4=O)cnc2c1F` [I-444, 4-(8-fluoro-7-methylimidazo [1,2-a]pyridin-3-yl)-7-((5-(4-hydroxy-4-((4-methylpiperazin-1-yl)methyl)piper-idin-1-yl)pyridin-2-yl)amino)isoin-dolin-1-one], the pIC50 was over 7.00.

As for `O=C1NCc2c(-c3cnn4c3CCCC4)ccc(Nc3ccc(N4CCC[C@@]5(CCNC5=O)C4)cn3)c21` [I-445, (R)-7-(6-((3-oxo-7-(4,5,6,7-tetrahydropyra-zolo[1,5-a]pyridin-3-yl)isoindolin-4-yl)amino)pyri-din-3-yl)-2,7-diazaspiro[4.5] decan-1-one], the negative-log IC50 (pIC50) was 6.00 to 7.00.

As for `O=C1NCc2c(-c3cnn4c3CCCC4)ccc(Nc3ccc(N4CCC[C@]5(CCNC5=O)C4)cn3)c21` [I-446, (S)-7-(6-((3-oxo-7-(4,5,6,7-tetrahydropyra-zolo[1,5-a]pyridin-3-yl)isoindolin-4-yl)amino)pyri-din-3-yl)-2,7-diazaspiro[4.5] decan-1-one], the negative-log IC50 (pIC50) is over 7.00.

Regarding `O=C1NCc2c(-c3cnc4cc(Cl)ccn34)ccc(Nc3ccc(N4CCC(O)(CN5CCOCC5)CC4)cn3)c21` [I-447, 4-(7-chloroimidazo [1,2-a]pyridin-3-yl)-7-((5-(4-hydroxy-4-(morpholino-methyl)piperidin-1-yl)pyridin-2-yl)amino)isoin-dolin-1-one], the negative logarithm of the IC50 (pIC50) is over 7.00.

As for `Cn1cc2ncc(-c3ccc(Nc4ccc(N5CCC(O)CC5)cn4)c4c3CNC4=O)c-2cn1` [I-448, 7-((5-(4-hydroxy-piperidin-1-yl)pyridin-2-yl)amino)-4-(6-methyl-6H-pyrrolo[2,3-d]pyridazin-3-yl)isoindolin-1-one], the negative logarithm of the IC50 (pIC50) is 6.00 to 7.00.

As for `CNC1CN(c2cccc(Nc3cnc(-c4ccnc5c4ccn5C)c4c3C(=O)NC4)n2)C1` [I-449, 7-[[6-[3-(methylamino)azetidin-1-yl]-2-pyridyl]amino]-4-(1-methylpyrrolo [2,3-b]pyridin-4-yl)-2,3-dihydropyrrolo [3,4-c]pyridin-1-one Formic acid salt], the negative logarithm of the IC50 (pIC50) is over 7.00.

With `O=C1NCc2c(-c3cnc4cc(F)ccn34)ccc(Nc3ccc(N4CCO[C@@H](CO)C4)cn3)c21` [I-450, 4-(7-fluoroimidazo [1,2-a]pyridin-3-yl)-7-[[5-[(2R)-2-(hydroxymeth-yl)morpholin-4-yl]-2-pyridyl]amino] isoindolin-1-one], the pIC50 is over 7.00.

Regarding `CN1CCN(c2cccc(Nc3cnc(-c4cnc5ccccn45)c4c3C(=O)NC4)n2)CC1` [I-451, 4-imidazo[1,2-a]pyridin-3-yl-7-[[6-(4-methylpiperazin-1-yl)-2-pyridyl]amino]-2,3-dihydropyrrolo [3,4-c]pyridin-1-one Bis formate], the pIC50 is over 7.00.

Consider `Cc1ccn2c(-c3ccc(Nc4ccc(N5CCO[C@H](CO)C5)cn4)c4c3CNC4=O)cnc2n1` [I-452, 7-[[5-[(2S)-2-(hydroxymeth-yl)morpholin-4-yl]-2-pyridyl]amino]-4-(7-methylimidazo [1,2-a]pyrimidin-3-yl)isoindolin-1-one], for which the pIC50 is over 7.00.
